This assay has as its target T1, recombinant human GST-SYK (Homo sapiens, UniProt P43405).
T1 construct: purchased Carna Biosciences 08-176
Kind of assay: Homogeneous Time-Resolved Fluorescence (HTRF) assay for the recombinant human Syk enzyme. Type of assay: biochemical. The settings on record: HTRF assay, recombinant human GST-SYK; IC50 given as class symbols; read-out: rhSYK Activity. The method, boiled down:
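GST-hSYK ([…]) was preincubated with inhibitor (0.1% DMSO final) for 10 minutes at room temperature in 15 mM Tris-HCl pH 7.5, 0.01% tween 20, 2 mM DTT. Biotinylated peptide (250 nM), 5 mM magnesium and 25 μM ATP started a 45-minute room-temperature reaction, read by time-resolved fluorescence.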
(In general: Time-resolved FRET reads energy transfer from a long-lived donor to a nearby acceptor.)
As to `Cc1cc(Nc2nccc(C(F)(F)F)n2)cc(-c2ccc(N3CCCC4(CCNC4=O)C3)nc2)c1` (centres unmarked) [Example 7.13], the IC50 fell in the range of 100 to 1000 nM.

For the compound `CNCc1ccc(-c2cc(C)cc(Nc3nccc(C(F)(F)F)n3)c2)cn1` [Example 2.49, N-(3-methyl-5-{6-[(methylamino)methyl]pyridin-3-yl}phenyl)-4-(trifluoromethyl)pyrimidin-2-amine], the IC50 was below 100 nM.

On to `CCOC(=O)CCc1cccc(-c2cccc(Nc3nccc(C(F)(F)F)n3)c2)n1` [Example 2.14, ethyl 3-[6-(3-{[4-(trifluoromethyl)pyrimidin-2-yl]amino}phenyl)pyridin-2-yl]propanoate], for which the IC50 was 1000 to 10000 nM.

Consider `Cc1cc(Nc2nccc(C(F)(F)F)n2)cc(-c2ccc(N[C@@H](Cc3c[nH]c4ccccc34)C(=O)O)nc2)c1` [Example 7.100, N-[5-(3-methyl-5-{[4-(trifluoromethyl)pyrimidin-2-yl]amino}phenyl)pyridin-2-yl]-L-tryptophan], for which the IC50 was below 100 nM.

For the compound `COc1nc(Nc2cc(C)cc(-c3ccc(N[C@H]4CC[C@H](C(=O)O)CC4)nc3)c2)ncc1F` [Example 2.121, trans-4-[(5-{3-[(5-fluoro-4-methoxypyrimidin-2-yl)amino]-5-methylphenyl}pyridin-2-yl)amino]cyclohexanecarboxylic acid], the IC50 is below 100 nM.

For `Cc1cc(Nc2nccc(C(F)(F)F)n2)cc(-c2ccc(CO)nc2)c1` [Example 4.7, [5-(3-methyl-5-{[4-(trifluoromethyl)pyrimidin-2-yl]amino}phenyl)pyridin-2-yl]methanol], the IC50 is below 100 nM.

Consider `Cc1cc(Nc2ncc(F)c(C)n2)cc(-c2ccc(N[C@H]3CC[C@H](C(=O)O)CC3)nc2)c1` [Example 2.120, trans-4-[(5-{3-[(5-fluoro-4-methylpyrimidin-2-yl)amino]-5-methylphenyl}pyridin-2-yl)amino]cyclohexanecarboxylic acid], for which the IC50 was below 100 nM.

For `Cc1cc(Nc2nccc(C(F)(F)F)n2)cc(-c2ccc(N3CC[C@H]3C(N)=O)nc2)c1` [Example 12.9, (2S)-1-[5-(3-methyl-5-{[4-(trifluoromethyl)pyrimidin-2-yl]amino}phenyl)pyridin-2-yl]azetidine-2-carboxamide], the IC50 is below 100 nM.

Consider `Cc1cc(Nc2nccc(C(F)(F)F)n2)cc(-c2ccc(C(C)(O)C(F)(F)F)nc2)c1` (centres unmarked) [Example 2.76, 1,1,1-trifluoro-2-[5-(3-methyl-5-{[4-(trifluoromethyl)pyrimidin-2-yl]amino}phenyl)pyridin-2-yl]propan-2-ol], for which the IC50 lay in the range of 100 to 1000 nM.

Turning to `CCC(CO)NC(=O)c1ccc(-c2cc(C)cc(Nc3nccc(C(F)(F)F)n3)c2)cn1` (centres unmarked) [Example 16.9, N-[1-(hydroxymethyl)propyl]-5-(3-methyl-5-{[4-(trifluoromethyl)pyrimidin-2-yl]amino}phenyl)pyridine-2-carboxamide], the IC50 fell in the range of 100 to 1000 nM.

For the compound `Cc1cc(Nc2nccc(C(F)(F)F)n2)cc(-c2ccc(N3CCC(C(N)=O)CC3)nc2)c1` [Example 7.32, 1-[5-(3-methyl-5-{[4-(trifluoromethyl)pyrimidin-2-yl]amino}phenyl)pyridin-2-yl]piperidine-4-carboxamide], the IC50 was below 100 nM.

`COc1ccnc(Nc2cc(C)cc(-c3ccc(C(C)(O)[C@H]4CC[C@H](C(=O)O)CC4)nc3)c2)n1` (stereo partly drawn) [Example 9.25, trans-4-[1-hydroxy-1-(5-{3-[(4-methoxypyrimidin-2-yl)amino]-5-methylphenyl}pyridin-2-yl)ethyl]cyclohexanecarboxylic acid]: the IC50 is below 100 nM.

For `CC(=O)NCCNc1ccc(-c2cc(C)cc(Nc3nccc(C(F)(F)F)n3)c2)cn1` [Example 7.37, N-(2-{[5-(3-methyl-5-{[4-(trifluoromethyl)pyrimidin-2-yl]amino}phenyl)pyridin-2-yl]amino}ethyl)acetamide], the IC50 was below 100 nM.

Turning to `O=C1NCCC1Nc1ccc(-c2cccc(Nc3nccc(C(F)(F)F)n3)c2)cn1` (centres unmarked) [Example 7.124, 3-{[5-(3-{[4-(trifluoromethyl)pyrimidin-2-yl]amino}phenyl)pyridin-2-yl]amino}pyrrolidin-2-one], the IC50 is below 100 nM.

In the case of `Cc1cc(Nc2nccc(C(F)(F)F)n2)cc(-c2ccc(C(=O)N3CCC(C)(O)CC3)nc2)c1` [Example 16.48, 4-methyl-1-{[5-(3-methyl-5-{[4-(trifluoromethyl)pyrimidin-2-yl]amino}phenyl)pyridin-2-yl]carbonyl}piperidin-4-ol], the IC50 is below 100 nM.

Turning to `Cc1cc(Nc2nccc(C)n2)cc(-c2ccc(C(C)(O)[C@H]3CC[C@H](C(=O)O)CC3)nc2)c1` (stereo partly drawn) [Example 9.23, trans-4-[1-hydroxy-1-(5-{3-methyl-5-[(4-methylpyrimidin-2-yl)amino]phenyl}pyridin-2-yl)ethyl]cyclohexanecarboxylic acid], the IC50 is below 100 nM.

Turning to `Cc1cc(Nc2nccc(C(F)(F)F)n2)cc(-c2ccc(N3CCCNCC3)nc2)c1` [Example 2.59, N-{3-[6-(1,4-diazepan-1-yl)pyridin-3-yl]-5-methylphenyl}-4-(trifluoromethyl)pyrimidin-2-amine], the IC50 was below 100 nM.

Regarding `Cc1cc(Nc2nccc(C(F)(F)F)n2)cc(-c2ccc(C(=O)NC(C)CO)nc2)c1` (centres unmarked) [Example 16.7, N-(2-hydroxy-1-methylethyl)-5-(3-methyl-5-{[4-(trifluoromethyl)pyrimidin-2-yl]amino}phenyl)pyridine-2-carboxamide], the IC50 was below 100 nM.

For the compound `CCCCOC(=O)[C@H]1CC[C@H](C(C)(O)c2ccc(-c3cc(C)cc(Nc4nccc(OC)n4)c3)cn2)CC1` (relative stereo) [Example 9.49, butyl trans-4-[1-hydroxy-1-(5-{3-[(4-methoxypyrimidin-2-yl)amino]-5-methylphenyl}pyridin-2-yl)ethyl]cyclohexanecarboxylate], the IC50 was below 100 nM.

Take `Cc1cc(Nc2nccc(C(F)(F)F)n2)cc(-c2ccc(C(=O)NC3CCOC3)nc2)c1` (centres unmarked) [Example 16.33, 5-(3-methyl-5-{[4-(trifluoromethyl)pyrimidin-2-yl]amino}phenyl)-N-(tetrahydrofuran-3-yl)pyridine-2-carboxamide]: the IC50 was 100 to 1000 nM.

Regarding `COc1ccnc(Nc2cc(C)cc(-c3cccc(CCC(=O)O)n3)c2)n1` [Example 2.2], the IC50 was below 100 nM.

For the compound `Cc1cc(Nc2nccc(C3CC3)n2)cc(-c2ccc(N[C@H]3CC[C@H](C(=O)O)CC3)nc2)c1` [Example 2.104, trans-4-[(5-{3-[(4-cyclopropylpyrimidin-2-yl)amino]-5-methylphenyl}pyridin-2-yl)amino]cyclohexanecarboxylic acid], the IC50 is below 100 nM.

In the case of `Cc1cc(Nc2nccc(C(F)(F)F)n2)cc(-c2ccnc(NC3CNC(=O)C3)c2)c1` (centres unmarked) [Example 15.74, 4-{[4-(3-methyl-5-{[4-(trifluoromethyl)pyrimidin-2-yl]amino}phenyl)pyridin-2-yl]amino}pyrrolidin-2-one], the IC50 is below 100 nM.

Regarding `Cc1cc(Nc2nccc(C(F)(F)F)n2)cc(-c2ccc(N[C@H](C)C(=O)O)nc2)c1` [Example 7.89, N-[5-(3-methyl-5-{[4-(trifluoromethyl)pyrimidin-2-yl]amino}phenyl)pyridin-2-yl]-D-alanine], the IC50 is below 100 nM.

Take `Cc1cc(Nc2nccc(C(F)(F)F)n2)cc(-c2ccc(N3CCCC4(CCOC4=O)C3)nc2)c1` (centres unmarked) [Example 7.14, 7-[5-(3-methyl-5-{[4-(trifluoromethyl)pyrimidin-2-yl]amino}phenyl)pyridin-2-yl]-2-oxa-7-azaspiro[4.5]decan-1-one]: the IC50 is 100 to 1000 nM.

Regarding `Cc1cc(Nc2nccc(C(F)(F)F)n2)cc(-c2ccc(NCCCN)nc2)c1` [Example 7.26, N-[5-(3-methyl-5-{[4-(trifluoromethyl)pyrimidin-2-yl]amino}phenyl)pyridin-2-yl]propane-1,3-diamine], the IC50 was below 100 nM.

Regarding `Cc1cc(Nc2nccc(C(F)(F)F)n2)cc(-c2ccc(C3(O)CCC(C(=O)O)C(C)(C)C3)nc2)c1` (single isomer, unassigned) [Example 9.16, (1R,4S or 1S,4R)-4-hydroxy-2,2-dimethyl-4-[5-(3-methyl-5-{[4-(trifluoromethyl)pyrimidin-2-yl]amino}phenyl)pyridin-2-yl]cyclohexanecarboxylic acid], the IC50 was below 100 nM.

Regarding `CC(=O)Nc1cc(Nc2nccc(C(F)(F)F)n2)cc(-c2ccc(N3CCNC(=O)C3)nc2)c1` [Example 7.5, N-(3-[6-(3-oxopiperazin-1-yl)pyridin-3-yl]-5-{[4-(trifluoromethyl)pyrimidin-2-yl]amino}phenyl)acetamide], the IC50 is below 100 nM.

For `Cc1cc(Nc2nccc(C(F)(F)F)n2)cc(-c2ccc(C(=O)NC(C)(CO)CO)nc2)c1` [Example 16.13, N-[2-hydroxy-1-(hydroxymethyl)-1-methylethyl]-5-(3-methyl-5-{[4-(trifluoromethyl)pyrimidin-2-yl]amino}phenyl)pyridine-2-carboxamide], the IC50 is below 100 nM.

Regarding `CCN1CCN(c2cc(-c3cc(C)cc(Nc4nccc(C(F)(F)F)n4)c3)ccn2)CC1` [Example 15.64, N-{3-[2-(4-ethylpiperazin-1-yl)pyridin-4-yl]-5-methylphenyl}-4-(trifluoromethyl)pyrimidin-2-amine], the IC50 is 100 to 1000 nM.

Turning to `Cc1cc(Nc2nccc(C(F)(F)F)n2)cc(-c2ccc(C3(O)CCC(C(=O)O)C3(C)C)nc2)c1` (centres unmarked) [Example 9.22, 3-hydroxy-2,2-dimethyl-3-[5-(3-methyl-5-{[4-(trifluoromethyl)pyrimidin-2-yl]amino}phenyl)pyridin-2-yl]cyclopentanecarboxylic acid], the IC50 is below 100 nM.

`O=C(O)CCc1ccc(-c2cccc(Nc3nccc(C(F)(F)F)n3)c2)cn1` [Example 2.82, 3-[5-(3-{[4-(trifluoromethyl)pyrimidin-2-yl]amino}phenyl)pyridin-2-yl]propanoic acid]: the IC50 was below 100 nM.

These data come from US9376418B2, “Substituted pyridine spleen tyrosine kinase (SYK) inhibitors” (Merck Sharp & Dohme Corp., priority 2012, dated 2016).
